Measurements as given in patent publication US12145959B2, “Bile acid recycling inhibitors for treatment of hypercholemia and cholestatic liver disease” (SHIRE HUMAN GENETIC THERAPIES, INC., priority 2011, dated 2024).

Assays:
[1] = system: Male Zucker diabetic fatty rats (ZDF/GmiCrl-fa/fa); assay: ZDF rat study of 264W94: fecal bile acid excretion, fecal NEFA and plasma bile acids; assay type: in vivo; settings: 2 weeks
Procedure: Animal preparation. Male Zucker diabetic fatty rats (ZDF/GmiCrl-fa/fa) were purchased from Charles River (Raleigh, NC) and housed under controlled conditions (12:12 light-dark cycle, 24° C. and 50% relative humidity) with free access to rodent food (Purina 5008, Harlan Teklad, Indianapolis, IN). All rats arrived at seven weeks of age (+3 days). After a one-week acclimation period, rats were anesthetized with isoflurane (Abbott Laboratories, IL) and tail-vein blood samples were collected at 9 am without fasting. Blood glucose levels were measured using a glucometer (Bayer, Leverkusen, Germany). In order to ensure balanced treatment groups, ZDF rats were assigned to six treatment groups based upon baseline glucose: vehicle (0.5% HPMC, 0.1% Tween80) and five doses of 264W94 (0.001, 0.01, 0.1, 1, 10 mg/kg). All treatments were given via oral gavage twice a day and animals were followed for two weeks with blood samples collected from tail vein at the end of each week at 9 am without fasting. Fecal samples were collected for 24 hours during the second week of treatment.
Measurement of clinical chemistry parameters. Non-esterified fatty acids (NEFA), bile acids, and bile acids in fecal extraction were measured using the Olympus AU640 clinical chemistry analyzer (Beckman Coulter, Irving, TX).

Male beagle dogs [2] = assay: Time to onset of activity of a single oral dose on postprandial total serum bile acids in beagle dogs; assay type: in vivo, dog
Procedure: Animal Study on the Duration of Action and Time to Onset of ASBTI Activity of a Single Oral Dose of LUM001 on Postprandial Total Serum Bile Acids in Beagle Dogs
Test compound: LUM001—Form I
(§1) Dosage preparation and administration: LUM001 was dissolved in water at concentrations that required the administration of 0.2 ml/kg of solution. Solutions were placed into gelatin capsules, Torpac Inc., size 13 Batch 594, East Hanover NJ, and administered orally.
(§2) Dogs: Male beagle dogs were obtained from Covance Research Products, Cumberland VA or Marshall Farms USA, Inc., North Rose NY A total of 20 dogs, 1 to 5 years old, 6.8 to 15.6 kg body weight, were used in these experiments. The dogs were conditioned to a 12 hour light/dark cycle and maintained on a feeding restriction of 1 hour per day access to food (Richman Standard Certified Canine Diet #5007, PMI Nutrition, Inc., St Louis MO) from 7 to 8 AM. They were trained to eat a special meal promptly within 20 minutes when presented (1 can. 397 g, Evanger's 100% Beef for Dogs, Evanger's Dog and Cat Food Co., Inc., Wheeling IL, mixed with 50 g of sharp cheddar cheese.).
(§3) Serum Total Bile Acid (SBA) Measurement: SBA was measured by an enzymatic assay. SBA values are expressed as μg of total bile acids/ml of serum.
To estimate the details of this plateau, 6 dogs were given a test meal and blood samples for SBA measurement were collected at −30, 0, 30, 60, 65, 70, 80, 90, 120, 180, 240, 360, 480, 720, 1410 and 1440 minutes from the time of feeding. Any remaining food was removed 20 min after it was first presented to the dogs. To establish a method for extending the elevated plateau of SBA, 6 dogs were given the meal at 0 hr and an additional ½ size meal again 4 hr after their first meal. Blood samples were taken at 0, 1, 2, 3, 4, 4.5, 6, 7 and 8 hr. The curves for SBA level vs time obtained in these experiments were used as references for determining blood sampling times in experiments with LUM001. […]

Male beagle dogs [3] = assay: Duration of action on dog serum bile acids, Method 2: one meal and extended interval between dosing and feeding; assay type: in vivo; settings: administered 2 hours prior to feeding
Procedure: as §1, §2, §3
Method 2: One Meal and Extended Interval Between Dosing and Feeding: Alternatively, 6 dogs were dosed with water or LUM001, at 0.05 mg/kg, p.o. at 1.5 hours prior to being fed, or 0.05, or 0.2 mg/kg, at 2 hours prior to feeding. This moved the elevated SBA plateau out in time from the dose point. […]

healthy adult subjects = assay: Phase 1 ascending multiple oral dose study: serum and fecal bile acid analysis; assay type: in vivo, human; settings: healthy adults; ascending multiple oral doses qAM, 28 days
Procedure: FIG. 3. Serum bile acid (SBA) analysis of healthy subjects after administration of ascending multiple oral doses of LUM001 a randomized, double-blind, placebo-controlled study. Shown in the graphs are data from the 0.5 (n=16), 1.0 (n=8), 2.5 (n=8), 5.0 (n=8) and 10 (n=8) mg dosing groups. On Day 1, blood was drawn for baseline SBA at approximately 30 minutes before and after breakfast and 30 minutes after lunch and dinner. Samples were obtained on day 14.
FIG. 4. Fecal bile acid analysis of healthy subjects after administration of ascending multiple oral doses of LUM001 a randomized, double-blind, placebo-controlled study. […]
SBA were analyzed as part of the routine clinical analysis of the serum samples collected at each time point.
Fecal Bile Acid Analysis: Fecal samples were collected for all panels except the dose-titration panel, 2.5 (2) and 5 mg (2), on Days 9 through 14 and 23 through 28 (data shown in FIG. 4). Twenty-four hour FBA excretions were quantified by Pharmacia for Days 9 through 14 and 23 through 28. […] The weight of each 24-hour fecal collection was recorded on the CRFs. […]
An aliquot for each 24-hour fecal sample collected on Days 23 through 28 was combined, homogenized, and analyzed for bile acid species concentrations by ANAPHARM. The fecal bile acid species evaluated include chenodeoxycholic acid, cholic acid, deoxycholic acid, and lithocholic acid.

[4] = Systemic exposure (pharmacokinetics) of LUM001 in patients under 18, study NB-00-02-014; assay type: in vivo, human; settings: QD in the morning, measured on day eight
Procedure: (§4) LUM001 has been administered to forty patients under the age of 18 years old. […] The drug was administered once-a-day (QD) in the morning for fourteen days. […] These doses are similar to those using to treat patients with cholestatic diseases.

[5] = system: children and adolescents under the age of eighteen; assay: Human study of fasting and post-prandial peak serum bile acids in children and adolescents; assay type: in vivo
Procedure: FIG. 5. Fasting serum bile acid levels and morning post-prandial peak in children under the age of 12. LUM001 was administered once-a-day (QD) in the morning for fourteen days.
Human Study to Test Efficacy of ASBTI in Lowering Serum Bile Acids
as §4
The efficacy of LUM001 was determined by measuring total serum bile acids after eight days of dosing in children and adolescents under the age of eighteen. Thirty minutes before the next drug administration, at approximately 8 am in the morning, serum bile acid levels were measured. The child had refrained from food for 12 hours prior to this sample thus providing a fasted level of serum bile acid. After breakfast, serum bile acids were measured for up to the next 4 hours (8 am to noon) and the peak serum bile acid concentration noted.

Male beagle dogs [6] = settings: previous experiments (2); cited from earlier work
Male ZDF rats = assay: Plasma bile acid levels of ZDF rats after ascending doses of SC-435 and LUM002; assay type: in vivo, rat; settings: ZDF rats n=4; oral gavage twice a day 2 weeks; all doses (SC-435 1, 10, 30 mg/kg; LUM002 0.3, 1, 3, 10, 30 mg/kg); end of second week
Procedure: (§5) FIG. 2. Plasma bile acid levels of ZDF rats after administration of ascending doses of SC-435 and LUM002. Male ZDF rats (n=4) were administered vehicle, SC-435 (1, 10 or 30 mg/kg) or LUM002 (0.3, 1, 3, 10 or 30 mg/kg) by oral gavage twice a day for 2 weeks. Plasma bile acid levels were determined at the end of the second week. Data are expressed as mean values±SEM.
as §5, with “Plasma” for “FIG. 2. Plasma”, “week. […]” for “week.”

[7] = FIG. 5 legend: children under the age of 12, QD for fourteen days
[8] = LUM001 treated patients under eighteen, after eight days of dosing
[9] = patients under eighteen, after eight days of dosing

## CCCC[C@]1(CC)CS(=O)(=O)c2cc(OC)c(OC)cc2[C@@H](c2ccccc2)N1 [Compound 264W94]
[1]; 0.001-10 mg/kg oral gavage twice a day, 24 h feces in second week, maximum elevation
  Fecal bile acid concentrations elevated, compared to vehicle treated rats: up to 6.5 fold
[1]; oral administration twice a day
  Bile acids in the feces: dose-dependently increased

## CCCCC1(CCCC)CS(=O)(=O)c2ccc(N(C)C)cc2[C@@H](c2ccc(OCc3ccc(C[N+]45CCN(CC4)CC5)cc3)cc2)[C@H]1O [LUM001]
Male beagle dogs [2]; 1 mg/kg versus 0.2 mg/kg
  Effect of increasing the dose on onset time to significant SBA lowering: did not shorten the onset time
Male beagle dogs [2]; Canis lupus familiaris, oral, read-out: ED50 dose in the dog SBA model
  ED50: 0.2 mg/kg
Male beagle dogs [2]; oral, 1 hour after feeding
  Threshold dose for significant lowering of SBA levels: 0.05 mg/kg
Male beagle dogs [3]
  Dose required to produce a significant effect on SBA: 0.2 mg/kg
Healthy adult subjects
  Fecal bile acids: significant increase
  Serum bile acids: significant reduction
[4]
  Systemic absorption (levels of systemic exposure): minimally absorbed
[5]; [7]
  Decrease in average fasting serum bile acid level versus placebo patients: 24%
  Decrease in average post-prandial peak serum bile acid level versus placebo patients: 23%
[5]; [8]
  Average fasting serum bile acid level: 6.5 µmol/L
  Average post-prandial peak serum bile acid level: 9.2 µmol/L
[5]; [9]
  Decrease in average fasting serum bile acid level versus placebo patients: 24%
  Decrease in average post-prandial peak serum bile acid level versus placebo patients: 23%
Male beagle dogs [6]
  Time that the compound remains active: more than 4.5 hours

## CCCC[C@]1(CC)CS(=O)(=O)c2ccc(N(C)C)cc2[C@@H](c2cccc(NC(=O)N[C@@H]3O[C@H](COS(=O)(=O)[O-])[C@@H](O)[C@H](OCc4ccccc4)[C@H]3O)c2)[C@H]1O.[K+] [LUM002]
Male ZDF rats
  Plasma bile acid levels: decreased

## CCCCC1(CCCC)CS(=O)(=O)c2ccc(N(C)C)cc2[C@@H](c2ccc(OCCCC[N+]34CCN(CC3)CC4)cc2)[C@H]1O.CS(=O)(=O)[O-] [SC-435, 1-[4-[4-[(4R,5R)-3,3-dibutyl-7-(dimethylamino)-2,3,4,5-tetrahydro-4-hydroxy-1,1-dioxido-1-benzothiepin-5-yl]phenoxy]butyl]4-aza-1-azoniabicyclo[2.2.2]octane methanesulfonate salt, reference compound]
Male ZDF rats
  Plasma bile acid levels: decreased
